Tests used:
C57BL/6j ob/ob Mice [1] = assay: anti-diabetic activities in the C57BL/6j ob/ob Mice model (Example 20); format: in vivo; conditions: for minimal effective dose: Mus musculus, oral gavage once a day for 1-4 days, plasma glucose 6 hours after dose, read-out: Potency (glucose lowering); for Insulin Level compared with vehicle: ob/ob mice, oral gavage
Experimental: (§1) The anti-diabetic activities of the compounds were evaluated in the C57BL/6j ob/ob Mice model.
(§2) Male, 7-9 weeks old, C57BL/6J ob/ob mice were purchased from The Jackson Laboratory (Bar Harbor, Me., USA). Animals were housed (4-5 mice/cage) under standard laboratory conditions at 22±3° C. temperature and 50±20% relative humidity, and were maintained on a diet of Purina rodent chow and water ad libitum. Prior to treatment, blood was collected from the tail vein of each animal. Mice that had non-fasting plasma glucose levels between 250 and 500 mg/dl were used. Each treatment group consisted of 8-10 mice that were distributed so that the mean glucose levels were equivalent in each group at the start of the study. Mice were dosed orally by gavage once a day for 1-4 days with vehicle and one or more dose of test compound at a dose ranging from 5 to 125 mg/kg. compounds were delivered in a liquid formulation containing 5% (v/v) dimethyl sulfoxide (DMSO), 1% (v/v) Tween 80® and 0.9% (w/v) methylcellulose. The gavage volume was 10 ml/kg. Blood samples were taken at 6 hours after the each dose and analyzed for plasma glucose. Food intake and body weight were measured daily. Plasma glucose concentrations were determined colorimetrically using a commercial glucose oxidase method (Sigma Chemical Co, St. Louis, Mo., USA). Significant difference between groups (comparing drug-treated to vehicle-treated) was evaluated using the Student unpaired t-test.

C57BL/6j ob/ob Mice [2] = assay: anti-diabetic activities in the C57BL/6j ob/ob Mice model (Example 13); format: in vivo; conditions: for Insulin Level compared with vehicle: ob/ob mice, oral gavage; for Potency (glucose lowering): oral gavage once a day for 1-4 days, 5 to 125 mg/kg, plasma glucose 6 hours after dose
Experimental: as §1
as §2, with “80 (and” for “80® and”, “Blood samples were taken at 6 hours after the each dose and analyzed for plasma glucose.” left out, “Plasma glucose concentrations were determined colorimetrically using a commercial glucose oxidase method (Sigma Chemical Co, St.” left out, “t-test. […]” for “t-test.”

SMILES | minimal effective dose (C57BL/6j ob/ob Mice [1]) [mg/kg] | Insulin Level compared with vehicle (C57BL/6j ob/ob Mice [1]) | Insulin Level compared with vehicle (C57BL/6j ob/ob Mice [2]) | Potency (glucose lowering) (C57BL/6j ob/ob Mice [2])
CC(=O)NCCOC(=O)C(Oc1ccc(C(F)(F)F)cc1)c1ccc(C(F)(F)F)cc1 (stereo not shown) [Compound 145] | ≤ 125 | Lower |  | 
O=C(O)C(Oc1ccc(C(F)(F)F)cc1-c1nc2ccccc2o1)c1ccccc1 (stereo not shown) [Compound I-369] |  |  | Lower | +++ (effective for glucose lowering at a dose of ≦25 mg/kg)
OCC(Oc1ccc(C(F)(F)F)cc1)c1ccc(C(F)(F)F)cc1 (stereo not shown) [Compound 128] | ≤ 125 | Lower |  | 
CC(=O)NCCOC(=O)C(Oc1cc(C(F)(F)F)cc(C(F)(F)F)c1)c1ccc(C(F)(F)F)cc1 (stereo not shown) [Compound 143] | ≤ 125 | Lower |  | 
CC(=O)NCCOC(=O)C(Oc1ccc(C(F)(F)F)cc1)c1cccc(C(F)(F)F)c1 (stereo not shown) [Compound 136, (4-trifluoromethyl-phenoxy)-(3-trifluoromethyl-phenyl)-acetic acid 2-acetylamino-ethyl ester] | ≤ 125 | Lower |  | 
O=C(O)C(Oc1ccc(C(F)(F)F)cc1Cl)c1ccc(C(F)(F)F)cc1 (stereo not shown) [Compound 89] | ≤ 125 | Lower |  | 
O=C(O)C(Oc1ccc(C(F)(F)F)cc1)c1ccc(C(F)(F)F)cc1 (stereo not shown) [Compound 83] | ≤ 125 | Lower |  | 
CC(=O)NCCOC(=O)C(Oc1ccccc1C(F)(F)F)c1ccc(C(F)(F)F)cc1 (stereo not shown) [Compound 146] | > 125 | Lower |  | 
O=C(O)C(Oc1ccccc1-c1nc2ccccc2o1)c1ccc(Cl)cc1 (racemic) [Compound I-1] |  |  | Lower | ++ (effective for glucose lowering at a dose of >25 mg/kg but <125 mg/kg)
O=C(O)C(Oc1ccc(C(F)(F)F)cc1)c1cccc(C(F)(F)F)c1 (single isomer, unassigned; (-)) [(−)-39, (4-trifluoromethyl-phenoxy)-(3-trifluoromethyl-phenyl)acetic acid] | ≤ 125 | Lower |  | 
O=C(O)C(Oc1ccc(C(F)(F)F)cc1-c1nc2ccccc2o1)c1ccc(Cl)cc1 (single isomer, unassigned) [Compound I-372] |  |  | Lower | +++ (effective for glucose lowering at a dose of ≦25 mg/kg)
O=C(O)C(Oc1ccc(Cl)cc1-c1nc2ccccc2o1)c1cccc(Cl)c1 (racemic) [Compound I-194] |  |  | Lower | +++ (effective for glucose lowering at a dose of ≦25 mg/kg)
COc1ccc(C(Oc2ccc(Cl)cc2-c2nc3ccccc3o2)C(=O)O)cc1 (racemic) [Compound I-193] |  |  | Lower | +++ (effective for glucose lowering at a dose of ≦25 mg/kg)
CC(=O)NCCOC(=O)C(Oc1cccc(C(F)(F)F)c1)c1ccc(C(F)(F)F)cc1 (stereo not shown) [Compound 142] | ≤ 125 | Lower |  | 
CC(Oc1ccc(C(F)(F)F)cc1)(C(=O)O)c1ccc(C(F)(F)F)cc1 (stereo not shown) [Compound 121, 2-(4-Trifluoromethyl-phenoxy)-2-(4-trifluoromethyl-phenyl)-propionic acid] | ≤ 125 | Lower |  | 
CC(Oc1ccc(C(F)(F)F)cc1-c1nc2ccccc2o1)(C(=O)O)c1ccccc1 (stereo not shown) [Ia-365] |  |  | Lower | +++ (effective for glucose lowering at a dose of ≦25 mg/kg)
CC(Oc1ccc(C(F)(F)F)cc1-c1nc2ccccc2o1)(C(=O)O)c1ccccc1 (stereo not shown) [Ia-366] |  |  | Lower | 
O=C(O)C(Oc1ccc(C(F)(F)F)cn1)c1cccc(C(F)(F)F)c1 (stereo not shown) [Compound 100, (3-Trifluoromethyl-phenyl)-(5-trifluoromethyl-pyridin-2-yloxy)-acetic acid] | ≤ 125 | Lower |  | 
O=C(O)C(Oc1cc(C(F)(F)F)cc(C(F)(F)F)c1)c1ccc(C(F)(F)F)cc1 (stereo not shown) [Compound 81] | ≤ 125 | Lower |  | 
CC(=O)NCCOC(=O)C(Oc1cccc(C(F)(F)F)c1)c1ccccc1C(F)(F)F (stereo not shown) [Compound 147] | > 125 | Lower |  | 
O=C(O)C(Oc1ccc(C(F)(F)F)cc1Cl)c1cccc(C(F)(F)F)c1 (stereo not shown) [Compound 85] | ≤ 125 | Lower |  | 
CC(=O)NCCOC(=O)C(Oc1cccc(C(F)(F)F)c1)c1cccc(C(F)(F)F)c1 (stereo not shown) [Compound 144] | ≤ 125 | Lower |  | 
O=C(O)C(Oc1ccc(C(F)(F)F)cc1-c1nc2ccccc2o1)c1cccc(C(F)(F)F)c1 (racemic) [Compound I-89] |  |  | Lower | +++ (effective for glucose lowering at a dose of ≦25 mg/kg)
CC(Oc1ccc(C(F)(F)F)cc1)(C(=O)O)c1cccc(C(F)(F)F)c1 (stereo not shown) [Compound 120, 2-(4-trifluoromethyl-phenoxy)-2-(3-trifluoromethyl-phenyl)propionic acid] | ≤ 125 | Lower |  | 
O=C(O)C(Oc1ccc(C(F)(F)F)cc1-c1nc2ccccc2o1)c1ccccc1 (racemic) [Compound I-92] |  |  | Lower | +++ (effective for glucose lowering at a dose of ≦25 mg/kg)
O=C(O)C(Oc1cccc(C(F)(F)F)c1)c1ccc(C(F)(F)F)cc1 (stereo not shown) [Compound 86] | ≤ 125 | Lower |  | 
O=C(O)C(Oc1ccc(Cl)cc1-c1nc2ccccc2o1)c1cccc(C(F)(F)F)c1 (racemic) [Compound I-191] |  |  | Lower | +++ (effective for glucose lowering at a dose of ≦25 mg/kg)
O=C(O)C(Oc1ccc(C(F)(F)F)cc1)c1cccc(C(F)(F)F)c1 (racemic) [Compound 39, (4-trifluoromethyl-phenoxy)-(3-trifluoromethyl-phenyl)acetic acid] |  | Lower |  | 
O=C(O)C(Oc1ccc(Cl)cc1-c1nc2ccccc2o1)c1ccc(Cl)cc1 (racemic) [Compound I-190] |  |  | Lower | +++ (effective for glucose lowering at a dose of ≦25 mg/kg)
O=C(O)C(Oc1ccccc1-c1nc2ccccc2o1)c1cccc(C(F)(F)F)c1 (racemic) [Compound I-3] |  |  | Lower | + (effective for glucose lowering at the dose of ≧125 mg/kg)
